Assay results reported in PMC10444810, “Induction of open-form bile canaliculus formation by hepatocytes for evaluation of biliary drug excretion” (Communications Biology, 2023).
Values joined by “and” are separate entries in the source; they are usually repeats but may differ in a detail not shown here. Identical values can stand only once.

Key:
Format in all cases: in vitro ADME
Settings in all cases: for Enzyme activity, Mean: mean of Well-1 to Well-4
CYP3A4 = molecular target: T1, CYP3A4 (Homo sapiens, UniProt P08684); experiment: Metabolic assay, cocktail substrate method (midazolam to 1’-hydroxymidazolam)
T1 construct: host or cells: PXB-cells (icHep: JFC, HUM181001B; sandwich culture: JFC)
Method: (§1) The metabolic activity of icHep and sandwich-cultured PXB-cells was measured using the cocktail substrate method of drug-metabolizing enzymes. The components of the cocktail are summarized in Supplementary Table 1. Assays were initiated by treating cells with TB containing cocktail substrates. Time point of each substrate was set when a linear increase in its metabolite production was observed. Concentrations of metabolites produced in the medium were measured by liquid chromatography-mass spectrometry (LC-MS/MS).

CYP2D6 = molecular target: T2, CYP2D6 (Homo sapiens, UniProt P10635); experiment: Metabolic assay, cocktail substrate method (bufuralol to 1’-hydroxybufuralol)
T2 construct: host or cells: PXB-cells (icHep: JFC, HUM181001B; sandwich culture: JFC)
Method: as §1

CYP2E1 = molecular target: T3, CYP2E1 (Homo sapiens, UniProt P05181); experiment: Metabolic assay, cocktail substrate method (chlorzoxazone to 6’-hydroxychlorzoxazone)
T3 construct: host or cells: PXB-cells (icHep: JFC, HUM181001B; sandwich culture: JFC)
Method: as §1

[1] = PXB-cells (JFC), incubation time 15 min, single wells
[2] = PXB-cells (JFC), incubation time 30 min, single wells
[3] = PXB-cells (JFC), incubation time 45 min, single wells
[4] = PXB-cells (JFC), incubation time 60 min, single wells
[5] = PXB-cells (JFC), incubation time 90 min, single wells
[6] = PXB-cells (JFC), rate per single well
[7] = icHep (HUM18100B), incubation time 15 min, single wells
[8] = icHep (HUM18100B), incubation time 30 min, single wells
[9] = icHep (HUM18100B), incubation time 45 min, single wells
[10] = icHep (HUM18100B), incubation time 60 min, single wells
[11] = icHep (HUM18100B), incubation time 90 min, single wells
[12] = icHep (HUM18100B), rate per single well
[13] = icHep (JFC), incubation time 15 min, single wells
[14] = icHep (JFC), incubation time 30 min, single wells
[15] = icHep (JFC), incubation time 45 min, single wells
[16] = icHep (JFC), incubation time 60 min, single wells
[17] = icHep (JFC), incubation time 90 min, single wells
[18] = icHep (JFC), rate per single well

T3 sequence (P05181 whole entry): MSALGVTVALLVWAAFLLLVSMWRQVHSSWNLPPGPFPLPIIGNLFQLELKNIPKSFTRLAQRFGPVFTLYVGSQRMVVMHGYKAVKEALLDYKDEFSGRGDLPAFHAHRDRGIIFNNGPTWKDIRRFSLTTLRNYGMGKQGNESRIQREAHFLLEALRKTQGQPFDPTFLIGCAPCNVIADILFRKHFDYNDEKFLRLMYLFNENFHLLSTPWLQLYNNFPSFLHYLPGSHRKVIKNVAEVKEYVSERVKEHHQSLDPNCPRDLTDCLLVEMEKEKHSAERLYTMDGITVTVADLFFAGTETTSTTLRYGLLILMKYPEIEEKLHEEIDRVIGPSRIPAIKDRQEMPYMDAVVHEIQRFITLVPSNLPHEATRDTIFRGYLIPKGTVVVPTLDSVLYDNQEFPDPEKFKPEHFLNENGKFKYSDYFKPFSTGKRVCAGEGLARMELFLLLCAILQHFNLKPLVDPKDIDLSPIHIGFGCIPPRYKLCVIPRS
T2 sequence (P10635 whole entry): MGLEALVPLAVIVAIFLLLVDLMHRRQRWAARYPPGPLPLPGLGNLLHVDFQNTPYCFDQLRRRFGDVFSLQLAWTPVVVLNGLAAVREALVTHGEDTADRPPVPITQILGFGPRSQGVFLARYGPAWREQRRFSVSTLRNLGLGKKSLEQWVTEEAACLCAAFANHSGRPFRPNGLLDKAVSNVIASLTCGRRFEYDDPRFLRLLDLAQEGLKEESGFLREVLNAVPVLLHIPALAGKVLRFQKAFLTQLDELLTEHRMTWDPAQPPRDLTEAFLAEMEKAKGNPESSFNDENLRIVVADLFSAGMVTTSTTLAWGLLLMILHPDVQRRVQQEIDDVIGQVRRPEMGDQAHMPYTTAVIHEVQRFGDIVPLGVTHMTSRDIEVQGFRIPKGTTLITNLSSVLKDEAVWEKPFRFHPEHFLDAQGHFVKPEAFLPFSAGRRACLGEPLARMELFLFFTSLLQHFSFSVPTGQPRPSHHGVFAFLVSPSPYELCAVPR
T1 sequence (P08684 whole entry): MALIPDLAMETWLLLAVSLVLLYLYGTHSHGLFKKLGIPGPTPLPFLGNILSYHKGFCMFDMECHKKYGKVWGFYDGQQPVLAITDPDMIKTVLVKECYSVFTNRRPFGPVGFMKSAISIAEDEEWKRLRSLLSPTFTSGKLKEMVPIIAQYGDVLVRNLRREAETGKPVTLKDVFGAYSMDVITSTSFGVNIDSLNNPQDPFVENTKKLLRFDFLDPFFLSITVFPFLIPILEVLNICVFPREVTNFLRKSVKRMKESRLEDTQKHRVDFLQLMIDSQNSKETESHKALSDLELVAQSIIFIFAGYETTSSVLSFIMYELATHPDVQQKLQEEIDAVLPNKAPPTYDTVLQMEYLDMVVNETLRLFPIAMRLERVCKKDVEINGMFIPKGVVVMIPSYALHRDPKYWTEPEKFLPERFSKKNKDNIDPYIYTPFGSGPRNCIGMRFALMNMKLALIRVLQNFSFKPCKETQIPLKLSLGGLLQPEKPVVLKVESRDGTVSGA

## OCc1ncc2n1-c1ccc(Cl)cc1C(c1ccccc1F)=NC2 [1'-hydroxymidazolam]
CYP3A4; [1]
  Enzyme activity: 85.9964 pmol/106 cells and 107.28 pmol/106 cells and 107.269 pmol/106 cells and 94.4354 pmol/106 cells
CYP3A4; [2]
  Enzyme activity: 157.896 pmol/106 cells and 182.793 pmol/106 cells and 221.326 pmol/106 cells and 195.956 pmol/106 cells
CYP3A4; [3]
  Enzyme activity: 229.127 pmol/106 cells and 265.395 pmol/106 cells and 205.135 pmol/106 cells and 181.378 pmol/106 cells
CYP3A4; [4]
  Enzyme activity: 216.024 pmol/106 cells and 232.078 pmol/106 cells and 207.606 pmol/106 cells and 244.165 pmol/106 cells
CYP3A4; [5]
  Enzyme activity: 251.177 pmol/106 cells and 288.431 pmol/106 cells and 316.537 pmol/106 cells and 214.43 pmol/106 cells
CYP3A4; PXB-cells (JFC)
  Enzyme activity, Mean: 6.05 pmol/min/106 cells
CYP3A4; [6]
  Enzyme activity: 4.79 pmol/min/106 cells and 5.03 pmol/min/106 cells and 7.60 pmol/min/106 cells and 6.77 pmol/min/106 cells
CYP3A4; [7]
  Enzyme activity: 124.221 pmol/106 cells and 126.279 pmol/106 cells and 141.412 pmol/106 cells and 115.91 pmol/106 cells
CYP3A4; [8]
  Enzyme activity: 259.113 pmol/106 cells and 258.447 pmol/106 cells and 251.469 pmol/106 cells and 277.435 pmol/106 cells
CYP3A4; [9]
  Enzyme activity: 382.492 pmol/106 cells and 333.832 pmol/106 cells and 305.042 pmol/106 cells and 320.283 pmol/106 cells
CYP3A4; [10]
  Enzyme activity: 439.172 pmol/106 cells and 380.966 pmol/106 cells and 417.242 pmol/106 cells and 349.083 pmol/106 cells
CYP3A4; [11]
  Enzyme activity: 536.397 pmol/106 cells and 514.134 pmol/106 cells and 491.294 pmol/106 cells and 551.51 pmol/106 cells
CYP3A4; icHep (HUM18100B)
  Enzyme activity, Mean: 8.98 pmol/min/106 cells
CYP3A4; [12]
  Enzyme activity: 8.99 pmol/min/106 cells and 8.81 pmol/min/106 cells and 7.34 pmol/min/106 cells and 10.8 pmol/min/106 cells
CYP3A4; [13]
  Enzyme activity: 99.4818 pmol/106 cells and 103.678 pmol/106 cells and 120.741 pmol/106 cells and 92.847 pmol/106 cells
CYP3A4; [14]
  Enzyme activity: 252.368 pmol/106 cells and 242.904 pmol/106 cells and 185.11 pmol/106 cells and 190.476 pmol/106 cells
CYP3A4; [15]
  Enzyme activity: 266.706 pmol/106 cells and 248.159 pmol/106 cells and 239.281 pmol/106 cells and 225.504 pmol/106 cells
CYP3A4; [16]
  Enzyme activity: 273.171 pmol/106 cells and 272.05 pmol/106 cells and 245.256 pmol/106 cells and 275.122 pmol/106 cells
CYP3A4; [17]
  Enzyme activity: 330.978 pmol/106 cells and 294.591 pmol/106 cells and 323.573 pmol/106 cells and 259.768 pmol/106 cells
CYP3A4; icHep (JFC)
  Enzyme activity, Mean: 7.57 pmol/min/106 cells

## CC(O)c1cccc2cc(C(O)CNC(C)(C)C)oc12 (centres unmarked) [1'-hydroxybufuralol]
CYP2D6; [1]
  Enzyme activity: 16.9358 pmol/106 cells and 20.2476 pmol/106 cells and 18.9803 pmol/106 cells and 17.4477 pmol/106 cells
CYP2D6; [2]
  Enzyme activity: 29.3048 pmol/106 cells and 32.2567 pmol/106 cells and 32.3369 pmol/106 cells and 36.5879 pmol/106 cells
CYP2D6; [3]
  Enzyme activity: 57.2694 pmol/106 cells and 67.3705 pmol/106 cells and 63.1354 pmol/106 cells and 57.1013 pmol/106 cells
CYP2D6; [4]
  Enzyme activity: 88.7619 pmol/106 cells and 86.626 pmol/106 cells and 83.8364 pmol/106 cells and 89.8476 pmol/106 cells
CYP2D6; [5]
  Enzyme activity: 79.3357 pmol/106 cells and 85.9811 pmol/106 cells and 83.3593 pmol/106 cells and 74.6468 pmol/106 cells
CYP2D6; PXB-cells (JFC)
  Enzyme activity, Mean: 1.57 pmol/min/106 cells
CYP2D6; [6]
  Enzyme activity: 1.62 pmol/min/106 cells and 1.56 pmol/min/106 cells and 1.50 pmol/min/106 cells and 1.58 pmol/min/106 cells
CYP2D6; [7]
  Enzyme activity: 20.6578 pmol/106 cells and 24.0318 pmol/106 cells and 24.5391 pmol/106 cells and 24.1229 pmol/106 cells
CYP2D6; [8]
  Enzyme activity: 38.6716 pmol/106 cells and 36.9398 pmol/106 cells and 37.9846 pmol/106 cells and 33.7885 pmol/106 cells
CYP2D6; [9]
  Enzyme activity: 56.8381 pmol/106 cells and 54.0547 pmol/106 cells and 51.5492 pmol/106 cells and 53.9902 pmol/106 cells
CYP2D6; [10]
  Enzyme activity: 80.7041 pmol/106 cells and 78.1674 pmol/106 cells and 75.41 pmol/106 cells and 73.212 pmol/106 cells
CYP2D6; [11]
  Enzyme activity: 107.294 pmol/106 cells and 123.561 pmol/106 cells and 104.675 pmol/106 cells and 114.288 pmol/106 cells
CYP2D6; icHep (HUM18100B)
  Enzyme activity, Mean: 1.33 pmol/min/106 cells
CYP2D6; [12]
  Enzyme activity: 1.40 pmol/min/106 cells and 1.37 pmol/min/106 cells and 1.25 pmol/min/106 cells and 1.31 pmol/min/106 cells
CYP2D6; [13]
  Enzyme activity: 27.4857 pmol/106 cells and 27.0951 pmol/106 cells and 24.9076 pmol/106 cells and 26.1443 pmol/106 cells
CYP2D6; [14]
  Enzyme activity: 41.2873 pmol/106 cells and 33.111 pmol/106 cells and 48.4523 pmol/106 cells and 44.4518 pmol/106 cells
CYP2D6; [15]
  Enzyme activity: 63.4972 pmol/106 cells and 59.7018 pmol/106 cells and 65.0037 pmol/106 cells and 67.8302 pmol/106 cells
CYP2D6; [16]
  Enzyme activity: 89.1933 pmol/106 cells and 91.8156 pmol/106 cells and 102.797 pmol/106 cells and 101.548 pmol/106 cells
CYP2D6; [17]
  Enzyme activity: 106.28 pmol/106 cells and 107.567 pmol/106 cells and 125.014 pmol/106 cells and 113.156 pmol/106 cells
CYP2D6; icHep (JFC)
  Enzyme activity, Mean: 1.55 pmol/min/106 cells
CYP2D6; [18]
  Enzyme activity: 1.43 pmol/min/106 cells and 1.69 pmol/min/106 cells and 1.64 pmol/min/106 cells and 1.42 pmol/min/106 cells

## O=c1[nH]c2cc(Cl)c(O)cc2o1 [6'-hydroxychlorzoxazone]
CYP2E1; [1]
  Enzyme activity: 2.306 pmol/106 cells and 2.95 pmol/106 cells and 3.355 pmol/106 cells and 2.895 pmol/106 cells
CYP2E1; [2]
  Enzyme activity: 5.44 pmol/106 cells and 5.421 pmol/106 cells and 6.357 pmol/106 cells and 6.2485 pmol/106 cells
CYP2E1; [3]
  Enzyme activity: 6.903 pmol/106 cells and 8.029 pmol/106 cells and 8.51 pmol/106 cells and 7.254 pmol/106 cells
CYP2E1; [4]
  Enzyme activity: 7.3761 pmol/106 cells and 7.959 pmol/106 cells and 8.112 pmol/106 cells and 7.339 pmol/106 cells
CYP2E1; [5]
  Enzyme activity: 7.477 pmol/106 cells and 10.4196 pmol/106 cells and 8.199 pmol/106 cells and 8.482 pmol/106 cells
CYP2E1; PXB-cells (JFC)
  Enzyme activity, Mean: 0.160 pmol/min/106 cells
CYP2E1; [6]
  Enzyme activity: 0.153 pmol/min/106 cells and 0.169 pmol/min/106 cells and 0.172 pmol/min/106 cells and 0.145 pmol/min/106 cells
CYP2E1; [7]
  Enzyme activity: 10.0765 pmol/106 cells and 9.906 pmol/106 cells and 11.3983 pmol/106 cells and 9.755 pmol/106 cells
CYP2E1; [8]
  Enzyme activity: 22.452 pmol/106 cells and 22.028 pmol/106 cells and 22.1618 pmol/106 cells and 20.005 pmol/106 cells
CYP2E1; [9]
  Enzyme activity: 33.1164 pmol/106 cells and 28.7079 pmol/106 cells and 30.6951 pmol/106 cells and 27.4528 pmol/106 cells
CYP2E1; [10]
  Enzyme activity: 42.0307 pmol/106 cells and 37.5801 pmol/106 cells and 42.224 pmol/106 cells and 33.7793 pmol/106 cells
CYP2E1; [11]
  Enzyme activity: 67.3851 pmol/106 cells and 64.4144 pmol/106 cells and 55.8641 pmol/106 cells and 56.1231 pmol/106 cells
CYP2E1; icHep (HUM18100B)
  Enzyme activity, Mean: 0.628 pmol/min/106 cells
CYP2E1; [12]
  Enzyme activity: 0.710 pmol/min/106 cells and 0.598 pmol/min/106 cells and 0.673 pmol/min/106 cells and 0.530 pmol/min/106 cells
CYP2E1; [13]
  Enzyme activity: 2.771 pmol/106 cells and 3.158 pmol/106 cells and 3.038 pmol/106 cells and 3.018 pmol/106 cells
CYP2E1; [14]
  Enzyme activity: 4.046 pmol/106 cells and 4.392 pmol/106 cells and 5.788 pmol/106 cells and 6.302 pmol/106 cells
CYP2E1; [15]
  Enzyme activity: 8.107 pmol/106 cells and 7.33 pmol/106 cells and 8.049 pmol/106 cells and 8.219 pmol/106 cells
CYP2E1; [16]
  Enzyme activity: 8.619 pmol/106 cells and 8.336 pmol/106 cells and 6.8 pmol/106 cells and 10.6833 pmol/106 cells
CYP2E1; [17]
  Enzyme activity: 10.5593 pmol/106 cells and 9.487 pmol/106 cells and 8.477 pmol/106 cells and 10.9673 pmol/106 cells
CYP2E1; icHep (JFC)
  Enzyme activity, Mean: 0.164 pmol/min/106 cells
CYP2E1; [18]
  Enzyme activity: 0.178 pmol/min/106 cells and 0.139 pmol/min/106 cells and 0.167 pmol/min/106 cells and 0.173 pmol/min/106 cells
